Source: ChEMBL document CHEMBL1153982, “Synthesis and evaluation of 2,7-diamino-thiazolo[4,5-d] pyrimidine analogues as anti-tumor epidermal growth factor receptor (EGFR) tyrosine kinase inhibitors” (Bioorg Med Chem Lett, 2009)
pIC50: −log10 of the molar value. ≈ marks a conversion by molar mass, not a printed value.

Tests used:
[1] = target: Epidermal growth factor receptor (Homo sapiens, UniProt P00533)
[2] = Oral bioavailability in rat at 10 mg/kg; assay type: ADME, organism-based; details: in vivo
[3] = Metabolic stability to human liver microsomes assessed as half life; assay type: ADME, Microsome
[4] = Cmax in rat at 10 mg/kg; assay type: ADME, organism-based; set-up: dose 10 mg/kg; details: in vivo
[5] = Solubility in aqueous buffer at pH 7.4; assay type: physicochemical
[6] = Half life in rat at 10 mg/kg; assay type: ADME, organism-based; set-up: dose 10 mg/kg; details: in vivo
[7] = AUC in rat at 10 mg/kg; assay type: ADME, organism-based; set-up: dose 10 mg/kg; details: plasma
[8] = Solubility in aqueous buffer at pH 2.0; assay type: physicochemical
[9] = AUC in mouse at 10 mg/kg; assay type: ADME, organism-based; set-up: dose 10 mg/kg; details: plasma
[10] = Half life in mouse at 10 mg/kg; assay type: ADME, organism-based; set-up: dose 10 mg/kg; details: in vivo
[11] = Oral bioavailability in mouse at 10 mg/kg; assay type: ADME, organism-based; details: in vivo, read-out: ED15
[12] = Cmax in mouse at 10 mg/kg; assay type: ADME, organism-based; set-up: dose 10 mg/kg; details: in vivo
[13] = target: Cyclin-dependent kinase 1 (Homo sapiens, UniProt P06493); assay: Inhibition of CDK1
Chain of Cyclin-dependent kinase 1 (P06493 whole entry): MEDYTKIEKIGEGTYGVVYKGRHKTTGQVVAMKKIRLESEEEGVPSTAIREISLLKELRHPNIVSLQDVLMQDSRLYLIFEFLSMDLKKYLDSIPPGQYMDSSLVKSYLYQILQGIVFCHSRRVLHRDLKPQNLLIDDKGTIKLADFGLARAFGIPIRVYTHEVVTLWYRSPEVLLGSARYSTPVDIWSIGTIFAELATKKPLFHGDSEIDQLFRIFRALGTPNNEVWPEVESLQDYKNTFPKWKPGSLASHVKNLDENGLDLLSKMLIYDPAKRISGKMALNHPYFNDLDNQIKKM

Chain of Epidermal growth factor receptor (P00533 whole entry): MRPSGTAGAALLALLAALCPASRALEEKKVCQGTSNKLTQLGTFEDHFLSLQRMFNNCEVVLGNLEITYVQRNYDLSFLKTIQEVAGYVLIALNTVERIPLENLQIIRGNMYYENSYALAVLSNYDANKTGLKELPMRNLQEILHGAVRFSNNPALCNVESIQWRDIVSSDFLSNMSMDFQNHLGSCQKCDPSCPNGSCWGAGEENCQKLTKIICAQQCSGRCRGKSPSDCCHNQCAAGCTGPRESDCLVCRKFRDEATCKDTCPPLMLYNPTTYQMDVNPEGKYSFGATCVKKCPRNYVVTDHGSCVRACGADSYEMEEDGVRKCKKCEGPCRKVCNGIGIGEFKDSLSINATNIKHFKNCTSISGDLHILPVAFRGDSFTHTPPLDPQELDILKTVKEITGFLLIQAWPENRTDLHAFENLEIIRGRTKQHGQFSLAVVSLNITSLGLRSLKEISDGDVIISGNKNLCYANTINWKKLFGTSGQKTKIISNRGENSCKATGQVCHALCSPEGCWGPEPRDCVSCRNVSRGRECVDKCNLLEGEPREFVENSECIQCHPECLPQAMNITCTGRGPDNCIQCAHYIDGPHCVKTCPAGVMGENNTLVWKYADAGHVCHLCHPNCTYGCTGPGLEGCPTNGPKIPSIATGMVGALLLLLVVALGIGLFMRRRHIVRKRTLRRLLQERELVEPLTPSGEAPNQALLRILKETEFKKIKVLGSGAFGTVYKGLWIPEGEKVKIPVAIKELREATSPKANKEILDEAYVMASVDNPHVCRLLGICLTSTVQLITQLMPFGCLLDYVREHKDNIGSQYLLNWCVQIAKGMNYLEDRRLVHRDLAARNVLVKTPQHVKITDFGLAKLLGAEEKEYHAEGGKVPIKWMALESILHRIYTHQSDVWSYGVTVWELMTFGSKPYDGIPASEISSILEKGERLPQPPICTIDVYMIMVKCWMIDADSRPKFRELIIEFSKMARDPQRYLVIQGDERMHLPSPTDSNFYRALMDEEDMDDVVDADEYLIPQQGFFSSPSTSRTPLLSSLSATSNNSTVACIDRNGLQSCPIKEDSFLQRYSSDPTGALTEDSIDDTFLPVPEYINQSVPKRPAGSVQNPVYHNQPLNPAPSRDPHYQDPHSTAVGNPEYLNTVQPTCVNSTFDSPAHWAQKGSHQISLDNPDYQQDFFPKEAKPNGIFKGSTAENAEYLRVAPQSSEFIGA

| SMILES | pIC50 [1] | bioavailability [2] [%] | half-life [3] [h] | Cmax [4] [ng/mL] | solubility [5] [µg/mL] | AUC [7] [ng·h/mL] | solubility [8] [µg/mL] | other results |
| --- | --- | --- | --- | --- | --- | --- | --- | --- |
| NS(=O)(=O)c1ccc(Nc2nc3ncnc(Nc4cccc(Br)c4)c3s2)cc1 | 8.00 |  |  |  |  |  |  |  |
| NS(=O)(=O)c1ccc(Nc2nc3ncnc(Nc4ccc(N5CCOCC5)c(Cl)c4)c3s2)cc1 | 5.48 |  |  |  |  |  |  |  |
| COCCN(CCOC)S(=O)(=O)c1ccc(Nc2nc3ncnc(Nc4ccc(F)c(Cl)c4)c3s2)cc1 | 7.60 |  |  |  |  |  |  |  |
| Fc1ccc(Nc2ncnc3nc(Nc4ccc(CN5CCCCC5)cc4)sc23)cc1Cl | 8.00 |  |  |  |  |  |  |  |
| Fc1ccc(Nc2ncnc3nc(Nc4ccc(CCN5CCOCC5)cc4)sc23)cc1Cl | 7.82 | 13 | 0.183 | 289 | < 0.2 | 1170 | 290 (≈ 598 µM) | half-life [6]: 1.8 h |
| Fc1ccc(Nc2ncnc3nc(Nc4ccc(CN5CCCC5)cc4)sc23)cc1Cl | 8.40 |  |  |  |  |  |  |  |
| C#Cc1cccc(Nc2ncnc3nc(Nc4ccc(CN5CCOCC5)cc4)sc23)c1 | 7.37 |  |  |  |  |  |  |  |
| N#Cc1cnc2nc(Nc3ccc(CN4CCOCC4)cc3)sc2c1Nc1ccc(F)c(Cl)c1 |  | 10.8 | 0.217 | 28 | < 0.2 | 184 | 37 (≈ 74.8 µM) | half-life [6]: 4.9 h |
| CCc1nccn1Cc1ccc(Nc2nc3ncnc(Nc4ccc(F)c(Cl)c4)c3s2)cc1 | 8.22 |  | 0.05 |  | < 0.2 |  | 300 (≈ 625 µM) |  |
| CN1CCN(Cc2ccc(Nc3nc4ncnc(Nc5ccc(OCc6cccc(F)c6)c(Cl)c5)c4s3)cc2)CC1 | 8.05 |  |  |  |  |  |  |  |
| Fc1ccc(Nc2ncnc3nc(Nc4ccc(CN5CCOCC5)cc4)sc23)cc1Cl | 7.92 | 20 | 0.317 | 527 | 1 (≈ 2.12 µM) | 2150 | > 1000 | AUC [9]: 10800 ng·h/mL; half-life [10]: 2.9 h; bioavailability [11]: 67%; half-life [6]: 1.88 h; Cmax [12]: 3850 ng/mL |
| OC[C@@H]1CCCN1Cc1ccc(Nc2nc3ncnc(Nc4ccc(F)c(Cl)c4)c3s2)cc1 |  | 0.3 | > 1.67 | 2.4 | < 0.2 | 24 | 360 (≈ 742 µM) |  |
| CN(C)Cc1ccc(Nc2nc3ncnc(Nc4ccc(F)c(Cl)c4)c3s2)cc1 |  | 9 | > 1.67 | 54 | 27 (≈ 62.9 µM) | 322 | 390 (≈ 909 µM) | half-life [6]: 3.2 h |
| NS(=O)(=O)c1ccc(Nc2nc3ncnc(Nc4cccc(Cl)c4)c3s2)cc1 | 8.15 | 0.8 | > 1.67 | 39 | < 0.2 | 224 | < 0.2 |  |
| NS(=O)(=O)c1ccc(Nc2nc3ncnc(Nc4c(F)cccc4F)c3s2)cc1 |  |  |  |  |  |  |  | pIC50 [13]: 4.70 |
